Measured values taken from patent publication US20210106566A1, “PHARMACEUTICAL COMPOSITION FOR TREATING AND/OR PREVENTING PERIPHERAL NEUROPATHY OR SPINAL CORD INJURY” (NATIONAL UNIVERSITY CORPORATION NAGOYA UNIVERSITY, priority 2015, published 2021).

Tested on: JNK1/2/3
Experiment: Western blot of JNK1/2/3 phosphorylation in primary motor neurons
Format: cell-based, mouse
Procedure: Zonisamide (0, 10, or 20 μmol/L) was added to primary motor neurons 4 hours after the beginning of culture. The cells were rinsed with a buffer (50 mmol/L HEPES pH 7.0, 150 mmol/L NaCl, 1% glycerol, 1% TritonX-100, 1.5 mmol/L MgCl2, 1 mmol/L EGTA, 100 mmol/L NaF, 10 mmol/L sodium pyrophosphate, […], 1 mmol/L PMSF, and 1 mmol/L sodium orthovanadate (V)) at days 2 and 3. Total protein was dissolved in 1× Laemmli buffer, separated on a 10% SDS polyacrylamide gel, and transferred to a polyvinylidene fluoride membrane (Immobilon-P, Millipore). The membrane was washed with Tris-buffered physiological saline with 0.05% Tween 20 (TBS-T) and blocked with TBS-T containing 3% skim milk at room temperature for 1 hour. The membrane was incubated with any of anti-Erk1/2 (#4696, Cell Signaling), anti-phosphorylated Erk1/2 (#4370, Cell Signaling), or anti-phosphorylated JNK1/2/3 (#4668, Cell Signaling) antibody (diluted at 1:1000) at 4° C. overnight. The membrane was washed with TBS-T for 10 minutes three times and incubated with […] secondary antibody conjugated to horseradish peroxidase (HRP, GE Healthcare, 1:6000) at room temperature for 1 hour. The blot was detected with Amersham ECL Western blotting detection reagent (GE Healthcare) and quantified with ImageJ program (http://imagej.nih.gov/ij/index.html).

SMILES: NS(=O)(=O)Cc1noc2ccccc12 [Zonisamide, 3-sulfamoylmethyl-1,2-benzisoxazole]
- phosphorylation level of JNK1/2/3: did not affect
